The target of experiment [1] is T1, human TNF-α (Homo sapiens, UniProt P01375). Nature of the experiment: TNF-α functional assay (hHEK-TNF-α SEAP reporter cells). It is filed as cell-based. Also noted: purchased ACROBiosystems TNA-H4211. The source says: Human HEK TNF-αcells (hHEK-TNF-α cells; InvivoGen Catalog #hkb-tnfdmyd; San Diego, CA, USA) are human embryonic kidney HEK293 cells that are stably transfected with the reporter gene, secreted alkaline phosphatase (SEAP). The hHEK-TNF-α cells allow for the detection of bioactive human and murine TNF-α via the activation of the NF-kB-inducible promoter and subsequent production of SEAP. Bioactivity of commercial human TNF-α protein (ActiveMax® Human TNF-α Protein, Tag Free, Low Endotoxin; available by ACROBiosystems Catalog #TNA-H4211; Newark, DE, USA) was determined in this reporter system.
Test molecules were dissolved in 100% DMSO and serially diluted by either 3-fold serial dilution or 4-fold serial dilution. […] TNF-α protein was added at the previously determined ECso. Plates containing cells, test molecules, and cytokine were incubated overnight for 18-24 hours at 37° C., 5% CO2.
The level of SEAP in the supernatant of each well was quantified using the Quanti Blue™ Solution (InvivoGen Catalog #rep-qba2; San Diego, CA, USA), a reagent with a colorimetric change in the presence of SEAP. To perform the Quanti-Blue assay: 20 L of the sample supernatant after the overnight 18-24 hour incubation was added to 180 L of Quanti Blue™ Reagent and incubated for 45 minutes at 37° C. […] Inhibition of TNF-α signaling was calculated utilizing GraphPad Prism (San Diego, CA, USA).
Target sequence in this assay (P01375 77-233 limits assumed): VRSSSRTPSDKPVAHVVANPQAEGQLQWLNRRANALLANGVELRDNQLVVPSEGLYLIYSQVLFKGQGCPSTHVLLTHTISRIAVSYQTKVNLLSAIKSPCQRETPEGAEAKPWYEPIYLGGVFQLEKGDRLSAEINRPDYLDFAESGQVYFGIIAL

Experiment [2] has as its target T1, human TNF-α. Kind of experiment: TNF-α thermal melt assay. In kind it is binding. Also noted: Amino acids 77-233 of Human TNF-α protein with an N-terminal GST tag; GST (N, cleaved yes); made in house; host or cells: Escherichia coli (BL21 NiCo). As to the method:
Protein was purified using glutathione agarose purification columns (Pierce™, Waltham, MA, USA). Following purification, the GST tag was removed using HRV3c protease (Pierce™, Waltham, MA, USA) and the GST tag and the TNF-α were separated via ion exchange chromatography using a 20 mM HEPES pH 8.0 buffer system ramping from 0 to 1 M NaCl over 12 column volumes with 5 ml of Q Sepharose (HiScreen Q HP, Cytiva™, Marlborough, MA, USA). The final protein includes the amino acids GPLGSG at the N-terminus of the protein.
Protein was heated from 20° C. to 95° C. at one degree per minute in a Roche Opus384 qPCR machine.
Target sequence in this assay (P01375 77-233): as the sequence (P01375 77-233 limits assumed) above

Where [3] appears, read: hHEK-TNF-α cells, SEAP readout, TNF-α added at EC80 (1.034 pM), 18-24 hours, read-out: TNF-α Function IC50.
The mark [4] stands for this setting: thermal melt, SYPRO Orange, Kd calculated as in Matulis et al., read-out: TM Kd.

Read-outs that look alike come from different tables or passages of the source.

`CC(C)(C)OC(=O)CCOCCOCCOCCOCCOCCOCCOCCOCCC(=O)N1CCN(Cc2ccc(-c3c[nH]c4ccncc34)c(OCCc3ccc(-c4cccc5ccncc45)cc3)c2)CC1` [Intermediate 3]: at human TNF-α [1] (setting [3]), the IC50 was found to be 1000 nM. Also, the Kd on human TNF-α [2] (setting [4]) was 120 nM.

As for `O=C(O)CCOCCOCCOCCOCCOCCOCCOCCOCCC(=O)N1CCN(Cc2ccc(-c3c[nH]c4ccncc34)c(OCCc3ccc(-c4cccc5ccncc45)cc3)c2)CC1` [Intermediate 4], the 50% inhibitory concentration (IC50) at human TNF-α [1] (setting [3]) was 230 nM. For the same molecule, the Kd on human TNF-α [2] (setting [4]) is 69 nM.

`CC(C)(C)OC(=O)CCOCCOCCOCCOCCOCCOCCC(=O)N1CCN(Cc2ccc(-c3c[nH]c4ccncc34)c(OCCc3ccc(-c4cccc5ccncc45)cc3)c2)CC1` [Intermediate 18]: the concentration for half-maximal inhibition (IC50) at human TNF-α [1] (setting [3]) is 810 nM.

As to `O=C(O)CCOCCOCCOCCOCCOCCOCCC(=O)N1CCN(Cc2ccc(-c3c[nH]c4ccncc34)c(OCCc3ccc(-c4cccc5ccncc45)cc3)c2)CC1` [Intermediate 19], the IC50 on human TNF-α [1] (setting [3]) was 370 nM.

As for `CC(C)(C)OC(=O)CCOCCOCCC(=O)N1CCN(Cc2ccc(-c3c[nH]c4ccncc34)c(OCCc3ccc(-c4cccc5ccncc45)cc3)c2)CC1` [Intermediate 23], on human TNF-α [1] (setting [3]), the half-inhibitory concentration (IC50) was found to be 337 nM. Moreover, at human TNF-α [2] (setting [4]), the Kd is 31 nM.

As to `O=C(O)CCOCCOCCC(=O)N1CCN(Cc2ccc(-c3c[nH]c4ccncc34)c(OCCc3ccc(-c4cccc5ccncc45)cc3)c2)CC1` [Intermediate 24], the IC50 at human TNF-α [1] (setting [3]) came out at 247 nM. In addition, the Kd at human TNF-α [2] (setting [4]) is 220 nM.

Molecule `CN1CCN(Cc2ccc(-c3c[nH]c4ccncc34)c(OCCc3ccc(-c4cccc5ccncc45)cc3)c2)CC1` [Intermediate 25] displayed an IC50 on human TNF-α [1] of 240 nM. Further, the Kd at human TNF-α [2] was below 1 nM.

Source of the values: US20260256921A1, “BIFUNCTIONAL MOLECULES TO TARGET DEGRADATION OF TUMOR NECROSIS FACTOR” (Biohaven Therapeutics Ltd., priority 2023, published 2026).
